Laboratory results published in US9216991B2 (Ares Trading S.A., priority 2012, dated 2015).
Where a name gives a salt, the structure may show the parent alone.

target: T1, IRAK4 (Homo sapiens, UniProt Q9NWZ3); assay: IRAK4 Enzymatic Assay; assay type: biochemical; conditions: His-TEV-IRAK4 20 ng/well, ATP 2 μM, STK1-biotin peptide 300 nM, 3 hours at 30° C., FlashPlate radioactivity
T1 construct: His (N); TEV cleavage site (N)
T1 sequence (Q9NWZ3 1-460): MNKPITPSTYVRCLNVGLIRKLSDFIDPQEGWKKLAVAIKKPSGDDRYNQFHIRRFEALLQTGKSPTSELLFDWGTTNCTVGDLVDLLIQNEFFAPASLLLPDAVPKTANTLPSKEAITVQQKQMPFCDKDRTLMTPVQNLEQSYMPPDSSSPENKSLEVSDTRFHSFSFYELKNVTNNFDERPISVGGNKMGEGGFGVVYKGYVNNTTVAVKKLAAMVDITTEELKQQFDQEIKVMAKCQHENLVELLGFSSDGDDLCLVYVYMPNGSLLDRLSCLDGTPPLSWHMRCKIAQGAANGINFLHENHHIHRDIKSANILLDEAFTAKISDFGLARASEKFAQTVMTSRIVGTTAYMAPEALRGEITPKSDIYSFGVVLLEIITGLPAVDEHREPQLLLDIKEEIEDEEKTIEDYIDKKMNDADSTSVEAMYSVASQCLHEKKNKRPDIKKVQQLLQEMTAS
Procedure: IRAK4 is a human purified recombinant enzyme (His-TEV-IRAK1 (194-712)
IRAK4 hydrolyses ATP, autophosphorylates and phosphorylates a Serine/Threonine generic peptidic substrate (STK: 61ST1BLC from CisBio International based in Bagnols/Cèze FR).
Measurement of IRAK-4 inhibition is performed in streptavidin coated 384 well FlashPlate (PerkinElmer #SMP410A). His-TEV-IRAK4 (20 ng/well), ATP (2 μM, [^33P]ATP 0.25 μCi/well), STK1-biotin peptide (300 nM) and compounds in DMSO (range of concentrations from 20 μM to 1nM) or controls (2% DMSO) are incubated for 3 hours at 30° C. in assay buffer: Hepes pH7.0 50 mM, Fatty acid-free BSA 0.1%, Dithiothreitol DTT 2 mM, MgCl2 10 mM, EGTA 0.5 mM, Tween-20 0.01%, MnCl2 5 mM.
Kinase reaction is stopped by addition of EDTA. Supernatant is discarded, plates are washed three times with 150 mM NaCl and radioactivity is then measured in a Microbeta Trilux reader.

| SMILES | IC50 |
| --- | --- |
| O=C(Cn1cc(-c2cnc(-c3cccc(-c4ccncc4)c3)nc2)cn1)N1CCCC1 [Example 43, 2-{4-[2-(3-Pyridin-4-yl-phenyl)-pyrimidin-5-yl]-pyrazol-1-yl}-1-pyrrolidin-1-yl-ethanone] | 1 to 5 µM |
| CC(=O)Cn1cc(-c2cnc(-c3cccc(-c4cnn(C)c4)c3)nc2)cn1 [Example 44, 1-(4-{2-[3-(1-Methyl-1H-pyrazol-4-yl)-phenyl]-pyrimidin-5-yl}-pyrazol-1-yl)-propan-2-one] | 0.1 to 1 µM |
| Cn1cc(-c2cccc(-c3ncc(-c4cnn(CC5CCOC5)c4)cn3)c2)cn1 (stereo not shown) [Example 45, 2-[3-(1-Methyl-1H-pyrazol-4-yl)-phenyl]-5-[1-(tetrahydro-furan-3-ylmethyl)-1H-pyrazol-4-yl]-pyrimidine] | 0.1 to 1 µM |
| Cn1cc(-c2cccc(-c3ncc(-c4cnn(Cc5ncco5)c4)cn3)c2)cn1 [Example 46, 2-[3-(1-Methyl-1H-pyrazol-4-yl)-phenyl]-5-(1-oxazol-2-ylmethyl-1H-pyrazol-4-yl)-pyrimidine] | 1 to 5 µM |
| Cn1cc(-c2cccc(-c3ncc(-c4cnn(CCc5ccccn5)c4)cn3)c2)cn1 [Example 47, 2-[3-(1-Methyl-1H-pyrazol-4-yl)-phenyl]-5-[1-(2-pyridin-2-yl-ethyl)-1H-pyrazol-4-yl]-pyrimidine] | 0.1 to 1 µM |
| Cn1cc(-c2cccc(-c3ncc(-c4cnn(C5CCNCC5)c4)cn3)c2F)cn1 [Example 48, 2-[2-Fluoro-3-(1-methyl-1H-pyrazol-4-yl)-phenyl]-5-(1-piperidin-4-yl-1H-pyrazol-4-yl)-pyrimidine Formate] | 1 to 5 µM |
| Cn1cc(-c2cccc(-c3ncc(-c4cnn(CC(N)=O)c4)cn3)c2)cn1 [Example 49, 2-(4-{2-[3-(1-Methyl-1H-pyrazol-4-yl)-phenyl]-pyrimidin-5-yl}-pyrazol-1-yl)-acetamide] | 1 to 5 µM |
| NCCn1cc(-c2cccc(-c3ncc(-c4cnn(CC(=O)N5CCCC5)c4)cn3)c2)cn1 [Example 50, 2-[4-(2-{3-[1-(2-Amino-ethyl)-1H-pyrazol-4-yl]-phenyl}-pyrimidin-5-yl)-pyrazol-1-yl]-1-pyrrolidin-1-yl-ethanone hydrochloride] | 1 to 5 µM |
| CN1CCN(C(=O)Cn2cc(-c3cnc(-c4cccc(-c5cnn(C)c5)c4)nc3)cn2)CC1 [Example 51, 1-(4-Methyl-piperazin-1-yl)-2-(4-{2-[3-(1-methyl-1H-pyrazol-4-yl)-phenyl]-pyrimidin-5-yl}-pyrazol-1-yl)-ethanone hydrochloride] | 0.1 to 1 µM |
| Cn1cc(-c2cccc(-c3ncc(-c4cnn(CCc5ccncc5)c4)cn3)c2)cn1 [Example 53, 2-[3-(1-Methyl-1H-pyrazol-4-yl)-phenyl]-5-[1-(2-pyridin-4-yl-ethyl)-1H-pyrazol-4-yl]-pyrimidine] | < 0.1 µM |
| Cn1cc(-c2cccc(-c3ncc(-c4cnn(CC(=O)NC5CCOCC5)c4)cn3)c2)cn1 [Example 54, 2-(4-{2-[3-(1-Methyl-1H-pyrazol-4-yl)-phenyl]-pyrimidin-5-yl}-pyrazol-1-yl)-N-(tetrahydro-pyran-4-yl)-acetamide] | 0.1 to 1 µM |
| Cn1cc(-c2cccc(-c3ncc(-c4cnn(CC(=O)N5CC6(COC6)C5)c4)cn3)c2)cn1 [Example 55, 2-(4-{2-[3-(1-Methyl-1H-pyrazol-4-yl)-phenyl]-pyrimidin-5-yl}-pyrazol-1-yl)-1-(2-oxa-6-aza-spiro[3.3]hept-6-yl)-ethanone] | 0.1 to 1 µM |
| Cc1ncc(-c2cccc(-c3ncc(-c4cnn(CC(=O)N5CCCC5)c4)cn3)c2)s1 [Example 56, 2-(4-{2-[3-(2-Methyl-thiazol-5-yl)-phenyl]-pyrimidin-5-yl}-pyrazol-1-yl)-1-pyrrolidin-1-yl-ethanone] | 0.1 to 1 µM |
| Cn1cc(-c2cccc(-c3ncc(-c4cnn(CCN5CCCCC5)c4)cn3)c2)cn1 [Example 57, 2-[3-(1-Methyl-1H-pyrazol-4-yl)-phenyl]-5-[1-(2-piperidin-1-yl-ethyl)-1H-pyrazol-4-yl]-pyrimidine] | 0.1 to 1 µM |
| Cn1cc(-c2cccc(-c3ncc(-c4cnn(CCN5CCCC5)c4)cn3)c2)cn1 [Example 58, 2-[3-(1-Methyl-1H-pyrazol-4-yl)-phenyl]-5-[1-(2-pyrrolidin-1-yl-ethyl)-1H-pyrazol-4-yl]-pyrimidine] | 0.1 to 1 µM |
| O=C(Cn1cc(-c2cnc(-c3cccc(-c4cnn(CCO)c4)c3)nc2)cn1)N1CCCC1 [Example 59, 2-[4-(2-{3-[1-(2-Hydroxy-ethyl)-1H-pyrazol-4-yl]-phenyl}-pyrimidin-5-yl)-pyrazol-1-yl]-1-pyrrolidin-1-yl-ethanone] | 1 to 5 µM |

| SMILES | IC50 |
| --- | --- |
| CCC(CO)NC(=O)Cn1cc(-c2cnc(-c3cccc(-c4cnn(C)c4)c3)nc2)cn1 (stereo not shown) [Example 60, N-(1-Hydroxymethyl-propyl)-2-(4-{2-[3-(1-methyl-1H-pyrazol-4-yl)-phenyl]-pyrimidin-5-yl}-pyrazol-1-yl)-acetamide] | 1 to 5 µM |
| CN1[C@@H]2CC[C@H]1C[C@H](n1cc(-c3cnc(-c4cccc(-c5cnn(C)c5)c4)nc3)cn1)C2 [Example 61, (3-exo)-8-Methyl-3-(4-{2-[3-(1-methyl-1H-pyrazol-4-yl)-phenyl]-pyrimidin-5-yl}-pyrazol-1-yl)-8-aza-bicyclo[3.2.1]octane] | < 0.1 µM |
| Cn1cc(-c2cccc(-c3ncc(-c4cnn(C5CCC(C(=O)O)CC5)c4)cn3)c2)cn1 (stereo not shown) [Example 62, 4-(4-{2-[3-(1-Methyl-1H-pyrazol-4-yl)-phenyl]-pyrimidin-5-yl}-pyrazol-1-yl)-cyclohexanecarboxylic acid] | 0.1 to 1 µM |
| COCC(C)NC(=O)Cn1cc(-c2cnc(-c3cccc(-c4cnn(C)c4)c3)nc2)cn1 (stereo not shown) [Example 63] | 0.1 to 1 µM |
| CN1CCCC1CCn1cc(-c2cnc(-c3cccc(-c4cnn(C)c4)c3)nc2)cn1 (stereo not shown) [Example 64, 2-[3-(1-Methyl-1H-pyrazol-4-yl)-phenyl]-5-{1-[2-(1-methyl-pyrrolidin-2-yl)-ethyl]-1H-pyrazol-4-yl}-pyrimidine] | 0.1 to 1 µM |
| Cn1cc(-c2cccc(-c3ncc(-c4cnn(CC5CCNC5)c4)cn3)c2)cn1 (stereo not shown) [Example 65, 2-[3-(1-Methyl-1H-pyrazol-4-yl)-phenyl]-5-(1-pyrrolidin-3-ylmethyl-1H-pyrazol-4-yl)-pyrimidine hydrochloride] | 0.1 to 1 µM |
| Cn1cc(-c2cccc(-c3ncc(-c4cnn(CC5CNC5)c4)cn3)c2)cn1 [Example 66, 5-(1-Azetidin-3-ylmethyl-1H-pyrazol-4-yl)-2-[3-(1-methyl-1H-pyrazol-4-yl)-phenyl]-pyrimidine hydrochloride] | 0.1 to 1 µM |
| Cn1cc(-c2cccc(-c3ncc(-c4cnn(CC(F)F)c4)cn3)c2)cn1 [Example 67, 5-[1-(2,2-Difluoro-ethyl)-1H-pyrazol-4-yl]-2-[3-(1-methyl-1H-pyrazol-4-yl)-phenyl]-pyrimidine] | 0.1 to 1 µM |
| O=C(Cn1cc(-c2cnc(-c3cccc(-c4ccncc4)c3)nc2)cn1)N1CCOCC1 [Example 68, 1-Morpholin-4-yl-2-{4-[2-(3-pyridin-4-yl-phenyl)-pyrimidin-5-yl]-pyrazol-1-yl}-ethanone] | 1 to 5 µM |
| Cn1cc(-c2cccc(-c3ncc(-c4cnn(CCC5CCOCC5)c4)cn3)c2)cn1 [Example 69, 2-[3-(1-Methyl-1H-pyrazol-4-yl)-phenyl]-5-{1-[2-(tetrahydro-pyran-4-yl)-ethyl]-1H-pyrazol-4-yl}-pyrimidine] | 0.1 to 1 µM |
| Cn1cc(-c2cccc(-c3ncc(-c4cnn(C[C@@H]5CCCN5)c4)cn3)c2)cn1 [Example 70, 2-[3-(1-Methyl-1H-pyrazol-4-yl)-phenyl]-5-(1-(S)-1-pyrrolidin-2-ylmethyl-1H-pyrazol-4-yl)-pyrimidine hydrochloride] | 1 to 5 µM |
| Cn1cc(-c2cccc(-c3ncc(-c4cnn(C[C@H]5CCCN5)c4)cn3)c2)cn1 [Example 71, 2-[3-(1-Methyl-1H-pyrazol-4-yl)-phenyl]-5-(1-(R)-1-pyrrolidin-2-ylmethyl-1H-pyrazol-4-yl)-pyrimidine hydrochloride] | 1 to 5 µM |
| Cn1cc(-c2cccc(-c3ncc(-c4cnn(C5CCNCC5)c4)cn3)c2)nn1 [Example 72, 2-[3-(1-Methyl-1H-[1,2,3]triazol-4-yl)-phenyl]-5-(1-piperidin-4-yl-1H-pyrazol-4-yl)-pyrimidine hydrochloride] | 1 to 5 µM |
| Cn1cc(-c2cccc(-c3ncc(-c4cnn(CC(=O)N5CCOC(CCO)C5)c4)cn3)c2)cn1 (stereo not shown) [Example 75, 1-[2-(2-Hydroxy-ethyl)-morpholin-4-yl]-2-(4-{2-[3-(1-methyl-1H-pyrazol-4-yl)-phenyl]-pyrimidin-5-yl}-pyrazol-1-yl)-ethanone] | 0.1 to 1 µM |
| Cn1cc(-c2cccc(-c3ncc(-c4cnn(C5CCN(S(C)(=O)=O)CC5)c4)cn3)c2)cn1 [Example 76, 5-[1-(1-Methanesulfonyl-piperidin-4-yl)-1H-pyrazol-4-yl]-2-[3-(1-methyl-1H-pyrazol-4-yl)-phenyl]-pyrimidine] | 0.1 to 1 µM |
